Reference: a melting point compilation (Tetko et al.; mined from patent text by program, amines drawn as free bases though some values may be those of a salt)

SMILES	melting point [°C]
CCOCc1cc2c(cc1C#Cc1ccccc1)NC(=O)CC(c1cccc(C#N)c1)=N2	229
C=CCN(CC=C)NC(=S)Nc1ccc(F)cc1	73 to 74
Cc1cc(C(=O)Nc2ccn3cc(-c4ccccc4)nc3n2)ccn1	255 to 257
COC(=O)C1Cc2c(ncn2Cc2ccc(N)c(C)c2)CN1C(=O)C(c1ccccc1)c1ccccc1 (configuration not stated)	182 to 188
COc1nc2cccc(C(=O)O)c2n1Cc1ccc(-c2ccccc2-c2nc(=O)o[nH]2)cc1	189 to 190
CCOCCc1c(N=[N+]=[N-])nc(NC(=O)NCC(=O)OCC)nc1-c1ccccc1	130
CCC1C(=O)N2CCCC(C(=O)OC(C)(C)C)N2C1=O (configuration not stated)	93 to 95
CNC(Cc1ccc(C(F)(F)F)cc1N)c1sccc1C (configuration not stated)	52 to 54
COc1ccc(C(=O)N2C(=O)CCC2CCC(=O)OCc2ccccc2)cc1 (configuration not stated)	80 to 83
COc1cccc2c(O)c(C)c(C)nc12	> 290
COc1ccc(C(=O)Nc2c(Cl)cncc2Cl)c2c1oc1ccc(Br)cc12	308
CC(C)NC(=O)n1cc(Cl)c(-c2cc(Cl)cc(Cl)c2)n1	127
CCCOc1c(OCc2ccccc2)cc(C2CCC(=O)O2)cc1S(=O)(=O)CCC (configuration not stated)	95 to 96
O=C(Cl)Cc1ccccc1NS(=O)(=O)C(F)(F)F	94 to 95
COc1nc(CC(=O)OC(C)(C)C)c([N+](=O)[O-])cc1C	71 to 72.5
CN1C(=O)SC(Cc2ccc(N)cc2)C1=O (configuration not stated)	91 to 92
COc1ccc(CSc2nnc(-c3ccc4ncccc4c3)o2)cc1C(F)(F)F	130 to 131
OCc1cccc2c1nc(-c1c(F)cccc1F)n2Cc1c(F)cccc1F	157 to 158
NCC1(O)CCN(CC2OCCO2)CC1	137
CCCC1CCc2c3c(c(F)c(F)c2O1)OC(C)C3 (configuration not stated)	87
NC(=O)/C=C1\CC(O)c2ccc(F)cc21 (configuration not stated)	166 to 168
CCCCOCCOc1ccc(-c2ccc3c(c2)C=C(C(=O)O)CCN3Cc2ccccc2)cc1	133 to 138
OCC1CCc2cc3ccccc3n2CC1 (configuration not stated)	90 to 91
CN(C(=O)O)c1cccc(-c2ccnc3c(C(=O)c4cccs4)cnn23)c1	215 to 217

SMILES	melting point [°C]
O=C(O)COc1ccc(-c2nn(-c3ccccc3)c3ncccc23)cc1	220 to 222
Cc1oc(-c2ccco2)nc1COc1ccc(COc2nn(-c3ccccc3)cc2/C=C/C(=O)O)cc1	144 to 145
COc1ccc(/C=C/c2c(Cl)cncc2Cl)c2cc(-c3ccccn3)oc12	157 to 158
O=C(NC(=O)C(Br)CBr)Nc1ccc(Cl)c(Cl)c1 (configuration not stated)	174 to 175
CCc1nn(CO)c(CC)c1Cc1cc(Cl)cc(Cl)c1	117 to 118
CCOCC(O)COc1ccc(NC(=O)CCSC)cc1 (configuration not stated)	79 to 81
BrCCc1c[nH]c2ccccc12	57 to 60
Cc1cc(OCC(=O)NCCO[N+](=O)[O-])no1	93 to 94
Cc1[nH]c(=O)c(C#N)cc1-c1ccc(S(C)(=O)=O)cc1	312 to 313
CN(CCO)c1nc(-c2ccc(Cl)c(C(=O)NCC34CC5CC(CC(C5)C3)C4)c2)ccc1C(=O)O	121 to 124
CCC(C)(C)Nc1c(NCc2ccc(F)cc2)c(=O)c1=O	255 to 257
O=C(CCCCl)Nc1cccc(Cc2n[nH]c(=O)c3ccccc23)c1	180 to 184
CN(Cc1cccc2c1CN(C1CCC(=O)NC1=O)C2=O)C(=O)Nc1cccc(F)c1 (configuration not stated)	218 to 220
CCOC(=O)c1nc2cc(Br)c(Cl)cc2[nH]c1=O	203 to 205
CCCCCCCCCCCCCCCCCCOc1cc(C(=O)OC)c([N+](=O)[O-])c(C(=O)OC)c1	65 to 68
O=C1CCC(N2C(=O)c3cccc(NCC(=O)N4CCC4)c3C2=O)C(=O)N1 (configuration not stated)	272 to 274
O=C1CCCc2c(F)cc(F)cc21	89 to 91
CCCCC(=O)OC1C=CC(OC(=O)CCCC)O1 (configuration not stated)	30 to 35
CN1CCN(c2cccc3ccc(C(O)c4ccccc4)cc23)CC1 (configuration not stated)	162 to 163
CC(C)=CCCC(C)=CCCC(C)=CC=CC(C)=CC(=O)O	78.4
CC(=O)Nc1nc(CCc2ccc(CC(=O)NC(=N)N)s2)cs1	188 to 190
CC1C(=O)NC(=O)N(Cc2ccccc2)C1=O (configuration not stated)	128 to 129
CCCc1c(OCCCCCOc2cccc3cc(C(=O)O)oc23)ccc2c1OCCC2=O	79.5 to 81
CCC(=O)c1ccc(CCNS(=O)(=O)c2ccccc2)cc1	116

The remaining lines, values ahead:

melting point [°C]	SMILES
61 to 63	Cc1noc(C)c1C(=O)Nc1ccc(-n2nc(C(F)(F)F)cc2C(F)(F)F)c(C(F)(F)F)c1
154 to 156	Cc1cc(Oc2ccc([N+](=O)[O-])c(N(C)C(=O)OC(C)(C)C)c2)cc(C)c1NC(=O)OC(C)(C)C
204	CCCN(C)CC(C)N1c2ccccc2Sc2ccc(C(N)=S)cc21 (racemic)
> 300	O=C(C=Cc1ccc(-c2ccc(O)cc2)cc1)NO
177 to 178	O=C(O)CCOc1cccc(/C=C/c2nc3ccccc3s2)c1
230 to 232	NC(=O)c1ncn(Cc2ccc(Cl)c(C(F)(F)F)c2)c1N
196 to 198	O=C(O)C1=Cc2cc(Cl)c(Cl)cc2OC1C(F)(F)F (configuration not stated)
142 to 144	CC(=O)NC[C@H]1CN(c2ccc3c(c2)CCS(=O)(=O)CC3)C(=O)O1
111 to 112	COc1ccc(O)c(CSc2nc(C)cn2C)c1
115 to 117	CNc1ccc(N=O)cc1
109 to 111	CCS(=O)(=O)NC1CCCOc2ccccc21 (configuration not stated)
65 to 67	O=C(Nc1ccc(-n2nc(C(F)(F)F)cc2C(F)(F)F)c(C(F)(F)F)c1)c1ccc(Cl)cc1
134 to 135	CC(C)N(CCOc1ccc(CC2SC(=O)NC2=O)cc1)C(C)C (configuration not stated)
143 to 145	COC(=O)C(=O)c1ccc(OCCOc2ccc(-c3ccccc3)cc2)cc1
60 to 63	Cc1cn(N)c2ccccc12
110 to 111	COc1ccc(C(C)(O)C(F)(F)F)c(CCO)c1 (configuration not stated)
140 to 143	Cc1c(N2CCC(C3(N)CCC3)C2)c(F)cc2c(=O)c(C(=O)O)cn([C@@H]3C[C@@H]3F)c12 (some centres not stated)
206 to 208	CCC(C)(C)c1cc(-c2cccc(C=C3SC(N4CCOCC4)=NC3=O)c2)cc(F)c1O
173 to 175	CC(C)(Oc1ccc(NC(=O)Cc2ccccc2)cc1)C(=O)O
179 to 181	O=C(O)Cc1nn(Cc2ccc(Br)cc2)c(=O)c2ccccc12
< 20	CCOC(=O)C(C)(C)Oc1ccc(-c2ccc(CCNC(=O)c3ccccc3C)cc2)cc1
122 to 124	COc1cccc(CC(=O)Nc2cc(Cl)c(Cl)cc2[N+](=O)[O-])c1
233	COc1ccc(C(=O)Nc2c(Cl)cncc2Cl)c2cc(C)oc12
96 to 98	CNC(=S)NCCOCc1c[nH]cn1
201 to 202	CN(C)S(=O)(=O)c1ccc2c(c1)C=C(C(=O)O)C(C(F)(F)F)O2 (configuration not stated)
157 to 159	O=Cc1ccc2c(c1)OC(c1ccccc1)(c1ccccc1)O2
264 to 265	CC(=O)OCC1CCn2c(c(C3=C(c4c[nH]c5ccccc45)C(=O)NC3=O)c3ccccc32)C1 (configuration not stated)

melting point [°C]	SMILES
320 to 322	CCn1ncc2c3[nH]cnc(=O)c3cnc21
122 to 123	Cc1cc2c(cc1N(Cc1ccccc1)Cc1ccccc1)OC(=O)C2C (configuration not stated)
127 to 129	Cn1c(=O)cnn(-c2cc(OCC#CBr)c(Cl)cc2F)c1=O
206	O=C(NC1CC1)c1cc([N+](=O)[O-])[nH]n1
131 to 132	COC(=O)C(O)=Cc1ccc(OCc2ccc(F)cc2)cn1
119	CCCCc1oc2ccccc2c1C(=O)c1ccc(O)cc1
161 to 163	O=C1CCC(N2Cc3c(OCc4ccc(CN5CCC(c6cccnc6)CC5)cc4)cccc3C2=O)C(=O)N1 (configuration not stated)
199 to 201	CN(C(=O)OC(C)(C)C)C1CCN(CC2(C)Cn3cc([N+](=O)[O-])nc3O2)CC1 (configuration not stated)
101 to 103	Cn1c(C(=O)C(C)(C)C)cc2cc(OCc3ccccc3)ccc21
59	N#Cc1cc(N)ccc1OC1CCCCC1
84 to 85	CC(CSc1nn(-c2ccccc2)c2c1CCC2)C(=O)O (configuration not stated)
199 to 204	Cc1cnc2c(NC(=O)c3ccccc3[N+](=O)[O-])cccc2c1-n1ccnc1
220 to 222	O=C(NCc1ccc(F)cc1-n1cncn1)c1nc2n(c(=O)c1O)CCN2CCO
186 to 191	CCc1nc2c(N)nc3ccc(OCc4ccccc4)cc3c2n1CCCCNS(C)(=O)=O
268 to 270	CCCc1c(/C=C/c2cc(OC)cc(OC)c2)nc2ccc(C(=O)O)cn2c1=O
> 210	Cc1noc(NS(=O)(=O)c2ccccc2-c2ccc(-c3ncccn3)cc2)c1C
95 to 97	CC(C)c1ccc(C2(O)C(=O)c3ccccc3C2=O)c(OC(=O)C=Cc2ccccc2)c1
67 to 68	CCOC(=O)C(O)CCc1ccc(OCCc2nc(-c3ccccc3)oc2C)cc1 (configuration not stated)
226 to 228	COc1ccc(Cl)cc1C(=N)Nc1cc(Cl)cc(NC(=O)/C=C/c2ccccc2Cl)c1
73 to 76	ClCc1cccc2cc(Br)ccc12
96 to 98	Cc1ccc2c(c1)C1(COc3cc4c(cc31)OCO4)C(=O)N2Cc1ccc(C(F)(F)F)o1 (configuration not stated)
188	COc1cc(C)c2c(c1)c1c(n2Cc2ccc(Cl)cc2)C(CC(=O)O)CCC1 (configuration not stated)
216 to 217	CSc1ccccc1CNC(=O)[C@@H]1CCCN(c2cccc3c2C(=O)N(Cc2ccncc2)C3=O)C1
102 to 103	O=C(O)Cc1ccc2c(c1)CC(CCNS(=O)(=O)c1ccccc1)C2 (configuration not stated)
75	CCCCCCCCOc1ncc(-c2ccc(OC(=O)[C@H]3CCCO3)cc2)cn1
92 to 95	Cc1cc(C)c(OP(Oc2c(C)cc(C)cc2C)Oc2c(C)cc(C)cc2C)c(C)c1
110 to 111	C[Si](C)(C)C#Cc1ccc(Oc2ccc(C(=O)C(=O)c3cccc(C(=O)C(=O)c4ccc(Oc5ccc(C#C[Si](C)(C)C)cc5)cc4)c3)cc2)cc1
